Results taken from PMC6071143, “(−)-Homosalinosporamide A and Its Mode of Proteasome Inhibition: An X-ray Crystallographic Study” (Marine Drugs, 2018).
Where two headings read alike, the source gives them in different places.

Legend:
human proteasome = tested on: human proteasome; parameters: method as in PMID 16286248; details: cited from earlier work
[1] = biological target: yeast 20S proteasome, caspase-like (C-L) activity; details: luminogenic enzyme assay; cited from earlier work
yeast 20S proteasome [2] = biological target: T1, yeast 20S proteasome (Saccharomyces cerevisiae, UniProt P25043+P30656+P38624); details: cited from earlier work
T1 construct: Crystals of the 20S proteasome from S. cerevisiae were grown in hanging drops; endogenous in cells; host or cells: S. cerevisiae (complex purified from yeast by a cited earlier protocol)

[3] = tested on: yeast 20S proteasome, chymotrypsin-like (ChT-L) activity; details: luminogenic enzyme assay; cited from earlier work
[4] = tested on: yeast 20S proteasome, trypsin-like (T-L) activity; details: luminogenic enzyme assay; cited from earlier work
yeast 20S proteasome [5] = biological target: T1, yeast 20S proteasome; experiment: X-ray crystallography of yeast 20S proteasome:ligand complex, mode of action; assay type: binding; details: yCP:homoSalA crystal structure, crystals soaked at 5 mM; no tetrahydropyran ring formation
Description: Therefore, we elucidated the yCP:homoSalA complex at molecular resolution to investigate its mode of action. Active yCP crystals were soaked with final compound concentrations of 5 mM for 24 h. Subsequently, diffraction data were recorded to 2.9 Å resolution (Table 2) and data processing, as well as structural refinement, were performed according to previous protocols. The crystallographic data were refined to a final Rfree value of 23.3% with root mean square deviation bond and angle values less than 0.007 Å and 1.1°, respectively (PDB ID 6GOP, Table 2). […] While the active site nucleophile Thr1O^γ opens the β-lactone ring, the positively charged Thr1NH3^+-terminus acts as a Brønsted acid generating a C4-hydroxyl group from the hydrolyzed β-lactone. […]
While the electron density map offered no evidence for fluoride elimination, the complex structure determined after 24 h crystal soaking time depicts complete displacement of the leaving group. […]
Crystals of the 20S proteasome from S. cerevisiae were grown in hanging drops at 20 °C as previously described and incubated for […] with homoSalA at 5 mM. […] Crystals were soaked in a cryoprotecting buffer (30% MPD, 20 mM of magnesium acetate, 100 mM MES (pH 6.9)) and frozen in a stream of liquid nitrogen gas at 100 K. X-ray intensities were evaluated using the XDS program package. […]

[6] = tested on: yeast 20S proteasome, chymotrypsin-like (ChT-L) activity; experiment: luminogenic enzyme assay, chymotrypsin-like activity; assay type: biochemical
Description: The proteasome inhibitory activity of the unnatural analog, homoSalA, was measured in a luminogenic enzyme assay in comparison to SalA enabling assessment of all three active sites of yCP.

[7] = tested on: chymotrypsin-like activity of the proteasome; parameters: method as in PMID 7732382; details: cited from earlier work

Which results are given for `C[C@@]12OC(=O)[C@]1([C@@H](O)[C@@H]1C=CCCC1)NC(=O)[C@@H]2CCCl` [(–)-SalA (1), salinosporamide A]?
IC50 (human proteasome): 1.3 nM; IC50 [1]: 111 ± 22 nM; mode of action (reversibility of proteasome inhibition) (yeast 20S proteasome [2]; chloro-ethyl moiety forms a tetrahydrofuran ring): irreversibly blocks the CP; ChT-L Activity 20S Proteasome (IC50, nM) [3]: sub-nanomolar range; IC50 [3]: 0.8 ± 0.08 nM; IC50 [4]: 39 ± 7 nM

Which results are given for `C[C@@]12OC(=O)[C@]1([C@@H](O)[C@@H]1C=CCCC1)NC(=O)[C@@H]2CCCCl` [(–)-homoSalA (3), (–)-homosalinosporamide A]?
mode of action (reversibility of proteasome inhibition) (yeast 20S proteasome [5]): reversible binder; potency towards caspase- and trypsin-like activities relative to chymotrypsin-like activity [6]: two orders of magnitude less potent; IC50 [1]: 144 ± 12 nM; ChT-L Activity 20S Proteasome (IC50, nM) [3]: sub-nanomolar range; IC50 [3]: 0.7 ± 0.04 nM; IC50 [4]: 118 ± 28 nM

Which “mode of action (reversibility of proteasome inhibition)” value (yeast 20S proteasome [2]) does the source give for `CC[C@H]1C(=O)N[C@@]2([C@@H](O)[C@@H]3C=CCCC3)C(=O)O[C@@]12C` [SalB, salinosporamide B] here?
The value was “slow reversible CP inhibitor”.

With `CC(C)[C@H](O)[C@@]12NC(=O)[C@H](C)[C@@H]1OC2=O` [omuralide (5), omuralide] as the compound, how does the IC50 [7] read?
Its IC50 is 49 nM.
